Results from patent US6706663B2, “Herbicidal 3-heterocyclic substituted benzisothiazole and benzisoxazole compounds” (Wyeth, priority 2000, dated 2004).

Legend:
ORYSAT (Rice, Tebonnet) [1] = assay: Preemergence herbicidal evaluation; assay type: in vivo, Oryza sativa, (L.) Tebonnet; settings: rated 4-5 weeks after treatment
[2] = tested on: ABUTH (Abutilon theophrasti); assay: Postemergence herbicidal evaluation; assay type: in vivo, Medic.
Method in brief: (§1)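 Visual 0–9 injury scores versus control plants, covering stand, vigour, malformation, size, chlorosis and general appearance, taken four to five weeks post-spray and averaged over replicate tests. Plants were sprayed at roughly two weeks old and held on greenhouse benches.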

[3] = tested on: CHEAL (Chenopodium album); assay: Postemergence herbicidal evaluation; assay type: in vivo, L.
Method in brief: as §1

[4] = tested on: CASOB (Cassia obtusifolia); assay: Postemergence herbicidal evaluation; assay type: in vivo, L.
Method in brief: as §1

[5] = tested on: AMBEL (Ambrosia artemisifolia); assay: Postemergence herbicidal evaluation; assay type: in vivo, L.
Method in brief: as §1

GALAP (Galium aparine) [6] = assay: Preemergence herbicidal evaluation; assay type: in vivo; settings: rated 4-5 weeks after treatment
Method in brief: (§2)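 Preemergence soil spray, aq. acetone; greenhouse; visual 0–9 score vs control at 4–5 wk.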

[7] = tested on: ECHCG (Echinochloa crus-galli); assay: Preemergence herbicidal evaluation; assay type: in vivo, (L.) Beau; settings: rated 4-5 weeks after treatment
Method in brief: as §2

SETVI (Setaria viridis) = assay: Preemergence herbicidal evaluation; assay type: in vivo, (L.) Beau; settings: rated 4-5 weeks after treatment
Method in brief: as §2

ZEAMX (Corn, Field) = assay: Postemergence herbicidal evaluation; assay type: in vivo, Zea mays, L.
Method in brief: as §1

GALAP (Galium aparine) [8] = assay: Postemergence herbicidal evaluation; assay type: in vivo
Method in brief: as §1

[9] = tested on: TRZAWR (Wheat, Winter, cv Riband); assay: Preemergence herbicidal evaluation; assay type: in vivo, Triticum aestivum; settings: rated 4-5 weeks after treatment
Method in brief: as §2

ORYSAT (Rice, Tebonnet) [10] = assay: Postemergence herbicidal evaluation; assay type: in vivo, Oryza sativa, (L.) Tebonnet
Method in brief: as §1

[11] = tested on: GLXMAW (Soybean, Williams); assay: Postemergence herbicidal evaluation; assay type: in vivo, Glycine max, (L.) Merr. cv Williams
Method in brief: as §1

[12] = tested on: IPOHE (Ipomoea hederacea); assay: Postemergence herbicidal evaluation; assay type: in vivo, (L.) Jacq.
Method in brief: as §1

Compound: CCOc1cc(OCC)nc(-c2nsc3ccc(-n4c(=O)cc(C(F)(F)F)n(C)c4=O)cc23)n1 [Compound 43, 3-[3-(4,6-diethoxy-2-pyrimidinyl)-1,2-benzisothiazol-5-yl]-1-methyl-6-(trifluoromethyl)uracil]
- Preemergence herbicidal rating ORYSAT (ORYSAT (Rice, Tebonnet) [1]; Rate 0.0620 kg/ha): 1.0
- Preemergence herbicidal rating ORYSAT (ORYSAT (Rice, Tebonnet) [1]; Rate 0.1250 kg/ha): 2.0
- Preemergence herbicidal rating ORYSAT (ORYSAT (Rice, Tebonnet) [1]; Rate 0.2500 kg/ha): 2.0
- Postemergence herbicidal rating, ABUTH ([2]; rate 0.0320 kg/ha): 9.0
- Postemergence herbicidal rating, ABUTH ([2]; rate 0.0620 kg/ha): 9.0
- Postemergence herbicidal rating, CHEAL ([3]; rate 0.0320 kg/ha): 6.0
- Postemergence herbicidal rating, CHEAL ([3]; rate 0.0620 kg/ha): 9.0
- Postemergence herbicidal rating, CASOB ([4]; rate 0.0320 kg/ha): 2.0
- Postemergence herbicidal rating, CASOB ([4]; rate 0.0620 kg/ha): 3.0
- Postemergence herbicidal rating, AMBEL ([5]; rate 0.0320 kg/ha): 9.0
- Postemergence herbicidal rating, AMBEL ([5]; rate 0.0620 kg/ha): 9.0
- Preemergence herbicidal rating GALAP (GALAP (Galium aparine) [6]; Rate 0.0620 kg/ha): 1.0
- Preemergence herbicidal rating GALAP (GALAP (Galium aparine) [6]; Rate 0.1250 kg/ha): 4.0
- Preemergence herbicidal rating GALAP (GALAP (Galium aparine) [6]; Rate 0.2500 kg/ha): 5.0
- Preemergence herbicidal rating ECHCG ([7]; Rate 0.0620 kg/ha): 0.0
- Preemergence herbicidal rating ECHCG ([7]; Rate 0.1250 kg/ha): 0.0
- Preemergence herbicidal rating ECHCG ([7]; Rate 0.2500 kg/ha): 3.0
- Preemergence herbicidal rating SETVI (SETVI (Setaria viridis); Rate 0.0620 kg/ha): 9.0
- Preemergence herbicidal rating SETVI (SETVI (Setaria viridis); Rate 0.1250 kg/ha): 9.0
- Preemergence herbicidal rating SETVI (SETVI (Setaria viridis); Rate 0.2500 kg/ha): 9.0
- Postemergence herbicidal rating, ZEAMX (ZEAMX (Corn, Field); rate 0.0320 kg/ha): 4.5
- Postemergence herbicidal rating, ZEAMX (ZEAMX (Corn, Field); rate 0.0620 kg/ha): 4.5
- Postemergence herbicidal rating, GALAP (GALAP (Galium aparine) [8]; rate 0.0320 kg/ha): 4.0
- Postemergence herbicidal rating, GALAP (GALAP (Galium aparine) [8]; rate 0.0620 kg/ha): 4.0
- Preemergence herbicidal rating TRZAWR ([9]; Rate 0.0620 kg/ha): 1.0
- Preemergence herbicidal rating TRZAWR ([9]; Rate 0.1250 kg/ha): 1.0
- Preemergence herbicidal rating TRZAWR ([9]; Rate 0.2500 kg/ha): 2.0
- Postemergence herbicidal rating, ORYSAT (ORYSAT (Rice, Tebonnet) [10]; rate 0.0320 kg/ha): 2.0
- Postemergence herbicidal rating, ORYSAT (ORYSAT (Rice, Tebonnet) [10]; rate 0.0620 kg/ha): 2.0
- Postemergence herbicidal rating, GLXMAW ([11]; rate 0.0320 kg/ha): 6.0
- Postemergence herbicidal rating, GLXMAW ([11]; rate 0.0620 kg/ha): 6.0
- Postemergence herbicidal rating, IPOHE ([12]; rate 0.0320 kg/ha): 9.0
- Postemergence herbicidal rating, IPOHE ([12]; rate 0.0620 kg/ha): 9.0

Compound: Cc1cccnc1-c1nsc2cc(F)c(-n3c(=O)cc(C(F)(F)F)n(C)c3=O)cc12 [Compound 44, 3-[6-fluoro-3-(3-methyl-2-pyridyl)-1,2-benzisothiazol-5-yl]-1-methyl-6-(trifluoromethyl)uracil]
- Preemergence herbicidal rating ORYSAT (ORYSAT (Rice, Tebonnet) [1]; Rate 0.0620 kg/ha): 6.5
- Preemergence herbicidal rating ORYSAT (ORYSAT (Rice, Tebonnet) [1]; Rate 0.1250 kg/ha): 8.0
- Preemergence herbicidal rating ORYSAT (ORYSAT (Rice, Tebonnet) [1]; Rate 0.2500 kg/ha): 8.0
- Postemergence herbicidal rating, ABUTH ([2]; rate 0.0320 kg/ha): 9.0
- Postemergence herbicidal rating, ABUTH ([2]; rate 0.0620 kg/ha): 9.0
- Postemergence herbicidal rating, CHEAL ([3]; rate 0.0320 kg/ha): 9.0
- Postemergence herbicidal rating, CHEAL ([3]; rate 0.0620 kg/ha): 9.0
- Postemergence herbicidal rating, CASOB ([4]; rate 0.0320 kg/ha): 2.0
- Postemergence herbicidal rating, CASOB ([4]; rate 0.0620 kg/ha): 4.0
- Postemergence herbicidal rating, AMBEL ([5]; rate 0.0320 kg/ha): 9.0
- Postemergence herbicidal rating, AMBEL ([5]; rate 0.0620 kg/ha): 9.0
- Preemergence herbicidal rating GALAP (GALAP (Galium aparine) [6]; Rate 0.0620 kg/ha): 0.0
- Preemergence herbicidal rating GALAP (GALAP (Galium aparine) [6]; Rate 0.1250 kg/ha): 9.0
- Preemergence herbicidal rating GALAP (GALAP (Galium aparine) [6]; Rate 0.2500 kg/ha): 9.0
- Preemergence herbicidal rating ECHCG ([7]; Rate 0.0620 kg/ha): 9.0
- Preemergence herbicidal rating ECHCG ([7]; Rate 0.1250 kg/ha): 9.0
- Preemergence herbicidal rating ECHCG ([7]; Rate 0.2500 kg/ha): 9.0
- Preemergence herbicidal rating SETVI (SETVI (Setaria viridis); Rate 0.0620 kg/ha): 9.0
- Preemergence herbicidal rating SETVI (SETVI (Setaria viridis); Rate 0.1250 kg/ha): 9.0
- Preemergence herbicidal rating SETVI (SETVI (Setaria viridis); Rate 0.2500 kg/ha): 9.0
- Postemergence herbicidal rating, ZEAMX (ZEAMX (Corn, Field); rate 0.0320 kg/ha): 5.0
- Postemergence herbicidal rating, ZEAMX (ZEAMX (Corn, Field); rate 0.0620 kg/ha): 5.5
- Postemergence herbicidal rating, GALAP (GALAP (Galium aparine) [8]; rate 0.0320 kg/ha): 4.0
- Postemergence herbicidal rating, GALAP (GALAP (Galium aparine) [8]; rate 0.0620 kg/ha): 7.0
- Preemergence herbicidal rating TRZAWR ([9]; Rate 0.0620 kg/ha): 6.0
- Preemergence herbicidal rating TRZAWR ([9]; Rate 0.1250 kg/ha): 7.0
- Preemergence herbicidal rating TRZAWR ([9]; Rate 0.2500 kg/ha): 9.0
- Postemergence herbicidal rating, ORYSAT (ORYSAT (Rice, Tebonnet) [10]; rate 0.0320 kg/ha): 2.0
- Postemergence herbicidal rating, ORYSAT (ORYSAT (Rice, Tebonnet) [10]; rate 0.0620 kg/ha): 3.5
- Postemergence herbicidal rating, GLXMAW ([11]; rate 0.0320 kg/ha): 8.5
- Postemergence herbicidal rating, GLXMAW ([11]; rate 0.0620 kg/ha): 8.5
- Postemergence herbicidal rating, IPOHE ([12]; rate 0.0320 kg/ha): 9.0
- Postemergence herbicidal rating, IPOHE ([12]; rate 0.0620 kg/ha): 9.0
